From the supplement of paper PMC8967900

Tests used:
Assay in all cases: selective drug sensitivity score (sDSS, relative to normal bone marrow) (sDSS (score)); higher = more potent and effective on the cell line relative to normal bone marrow cells
Conditions in all cases: 72 h
KASUMI-2 = system: KASUMI-2
TANOUE = system: TANOUE
PEER = system: PEER
MHH-CALL-3 = system: MHH-CALL-3
RCH-ACV = system: RCH-ACV
COG-LL-317 = system: COG-LL-317
COG-LL-402h = system: COG-LL-402h
HAL-01 = system: HAL-01
HPB-ALL = system: HPB-ALL
DND-41 = system: DND-41
CCRF-CEM = system: CCRF-CEM
MOLT-14 = system: MOLT-14
COG-LL-394h = system: COG-LL-394h
REH = system: REH
NALM-6 = system: NALM-6
ALL-SIL = system: ALL-SIL
TMD5 = system: TMD5
LC4-1 = system: LC4-1
MN-60 = system: MN-60
KARPAS-45 = system: KARPAS-45
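Note: ALL cell lines in 384-well plates, five doses spanning 10,000-fold, each plate scaled between vehicle and 100 µmol/L benzalkonium chloride controls, sDSS an adapted area-under-curve metric.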

Compound | selective drug sensitivity score (KASUMI-2) | selective drug sensitivity score (TANOUE) | selective drug sensitivity score (PEER) | selective drug sensitivity score (MHH-CALL-3) | selective drug sensitivity score (RCH-ACV) | selective drug sensitivity score (COG-LL-317) | selective drug sensitivity score (COG-LL-402h) | selective drug sensitivity score (HAL-01) | selective drug sensitivity score (HPB-ALL) | selective drug sensitivity score (DND-41) | selective drug sensitivity score (CCRF-CEM) | selective drug sensitivity score (MOLT-14) | selective drug sensitivity score (COG-LL-394h) | selective drug sensitivity score (REH) | selective drug sensitivity score (NALM-6) | selective drug sensitivity score (ALL-SIL) | selective drug sensitivity score (TMD5) | selective drug sensitivity score (LC4-1) | selective drug sensitivity score (MN-60) | selective drug sensitivity score (KARPAS-45)
CC[C@@H](C(=O)[C@@H](C)[C@@H](O)[C@H](C)[C@@H]1O[C@@H]([C@@H](CC)C(=O)O)CC[C@@H]1C)[C@H]1O[C@]2(C=C[C@@H](O)[C@]3(CC[C@@](C)([C@H]4CC[C@](O)(CC)[C@H](C)O4)O3)O2)[C@H](C)C[C@@H]1C [Salinomycin] (top concentration 50000 nM) | -23.2 | -7.5 | 10.5 | -3.3 | -15.4 | -2.2 | -4 | 5.6 | -1.2 | 4.7 | 2 | 6.3 | 3.2 | -13 | -4.9 | 0.6 | 1.1 | -10.9 | 0.3 | 5.4
CNC(=O)CN1CCC(Oc2cc3c(Nc4cccc(Cl)c4F)ncnc3cc2OC)CC1 [Sapitinib] (top concentration 1000 nM) | 0 | 0 | 0 | 0.1 | 0 | 0 | 0 | 0 | 0 | 0 | 0 | 0 | 0 | 0 | 0 | 0 | 0 | 0 | 0 | 0
O[C@H]1CC[C@H](Nc2ncc3nc(Nc4c(F)cc(F)cc4F)n([C@H]4CCOC4)c3n2)CC1 [Tanzisertib] (top concentration 10000 nM) | 0 | 0 | 0 | 0 | 0 | 0 | 0 | 0 | 0 | 0 | 0 | 0 | 0 | 0 | 0 | 0 | 0 | 0 | 0 | 0
CO[C@H]1C[C@@H]2CC[C@@H](C)[C@@](O)(O2)C(=O)C(=O)N2CCCC[C@H]2C(=O)O[C@H]([C@H](C)C[C@@H]2CC[C@@H](OC(=O)C(C)(CO)CO)[C@H](OC)C2)CC(=O)[C@H](C)/C=C(\C)[C@@H](O)[C@@H](OC)C(=O)[C@H](C)C[C@H](C)/C=C/C=C/C=C/1C [Temsirolimus] (top concentration 100 nM) | 6.46 | -5.04 | 7.16 | 7.36 | 20.8 | 3.96 | 4.66 | -0.74 | -4.44 | 3.66 | 7.76 | -4.24 | -5.04 | 3.96 | -2.34 | 2.76 | -5.04 | 3.46 | 2.46 | 2.26
COc1cc([C@@H]2c3cc4c(cc3[C@@H](O[C@@H]3O[C@@H]5CO[C@@H](c6cccs6)O[C@H]5[C@H](O)[C@H]3O)[C@H]3COC(=O)[C@H]23)OCO4)cc(OC)c1O [Teniposide] (top concentration 10000 nM) | 2.4 | 0 | 0 | 0 | 0 | 0 | 0.1 | 0 | 0 | 0 | 0 | 0 | 0 | 0 | 0 | 0 | 0 | 0 | 0 | 0
Oc1nc(-c2ccc(C(F)(F)F)cc2)nc2c1CSCC2 [XAV939] (top concentration 10000 nM) | 1.46 | -0.14 | 0.96 | -0.14 | 0.06 | -0.14 | 0.16 | -0.14 | -0.14 | -0.14 | -0.14 | -0.14 | 0.36 | -0.04 | -0.14 | -0.14 | -0.14 | 0.56 | -0.14 | -0.14
